pKi: −log10 of the molar value. Like-named read-outs stand apart in the source and are kept apart here.
What was measured:
[1] = target: T1, MMP-1 (Homo sapiens, UniProt P03956); assay: In vitro MMP inhibition, Ki determination (fluorogenic substrate II); type: biochemical; details: read-out: MMP-1 Ki
T1 construct: made in house; host or cells: MMP-1-transfected HT-1080 cells (spent media)
T1 sequence (P03956 100-469): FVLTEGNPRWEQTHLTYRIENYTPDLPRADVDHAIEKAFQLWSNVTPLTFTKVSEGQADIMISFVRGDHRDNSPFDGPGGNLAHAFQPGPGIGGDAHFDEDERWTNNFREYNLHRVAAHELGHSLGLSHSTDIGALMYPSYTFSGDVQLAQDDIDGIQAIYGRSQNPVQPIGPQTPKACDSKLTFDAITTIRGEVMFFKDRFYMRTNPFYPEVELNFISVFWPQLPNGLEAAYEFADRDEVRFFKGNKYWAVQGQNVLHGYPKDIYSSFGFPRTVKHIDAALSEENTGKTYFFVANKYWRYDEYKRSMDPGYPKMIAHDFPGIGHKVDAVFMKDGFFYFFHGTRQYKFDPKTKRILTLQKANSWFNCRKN

[2] = target: T2, MMP-13 (Homo sapiens, UniProt P45452); assay: as above; type: biochemical; details: read-out: MMP-13 Ki
T2 construct: made in house; host or cells: baculovirus / insect cells
How it was run: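 Ki determined with human recombinant MMP-13, baculovirus-expressed as proenzyme and activated with APMA. Fluorogenic MCA/Dpa substrate II at 4 μM (at or below Km) with low enzyme in Tris buffer pH 7.5 with CaCl2. Incubation was 1 h at room temperature, with fluorescence read at 330/420 nm.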

Row | pKi ([1]; value not in parenthesis) | pKi ([2]; value not in parenthesis) | pKi ([1]; value outside parentheses) | pKi ([2]; value outside parentheses) | SMILES
1 |  |  | 6.20 | 9.34 | CCc1ccc(N2CCN(S(=O)(=O)C3(C(=O)NO)CCCC3)CC2)nc1 [Example 261]
2 |  |  | 6.22 | 9.58 | CCc1ccc(N2CCN(S(=O)(=O)C3(C(=O)NO)CCCCC3)CC2)nc1 [Example 263]
3 |  |  | < 5.00 | 10.32 | CCCCOc1ccc(N2CCN(S(=O)(=O)C3(C(=O)NO)CCN(c4ccccc4)CC3)CC2)cc1 [Example 264]
4 |  |  | < 5.00 | 9.20 | CCCCOc1ccc(N2CCN(S(=O)(=O)C3(C(=O)NO)CCN(C(=O)CC(F)(F)F)CC3)CC2)cc1 [Example 265]
5 |  |  | < 5.00 | 9.51 | CCCCOc1ccc(N2CCN(S(=O)(=O)C3(C(=O)NO)CCN(C(=O)c4cccnc4)CC3)CC2)cc1 [Example 266]
6 |  |  | < 5.00 | 9.19 | CCCCOc1ccc(N2CCN(S(=O)(=O)C3(C(=O)NO)CCN(C(=O)C(C)(C)C)CC3)CC2)cc1 [Example 267]
7 |  |  | 5.03 | 9.51 | CCCCOc1ccc(N2CCN(S(=O)(=O)C3(C(=O)NO)CCN(C(=O)COC)CC3)CC2)cc1 [Example 268]
8 |  |  | 5.19 | 9.60 | CCCCOc1ccc(N2CCN(S(=O)(=O)C3(C(=O)NO)CCN(C=O)CC3)CC2)cc1 [Example 269]
9 |  |  | < 5.00 | 9.47 | CCCCc1ccc(N2CCN(S(=O)(=O)C3(C(=O)NO)CCN(CCOC)CC3)CC2)nc1 [Example 270]
10 |  |  | 5.13 | 9.34 | CCCCOc1ccc(N2CCN(S(=O)(=O)C3(C(=O)NO)CCN(C(=O)CO)CC3)CC2)cc1 [Example 271]
11 |  |  | < 5.00 | 9.48 | CCCCCc1ccc(N2CCN(S(=O)(=O)C3(C(=O)NO)CCN(C4CC4)CC3)CC2)cc1 [Example 272]
12 |  |  | < 5.00 | 9.50 | CCCCOc1ccc(N2CCN(S(=O)(=O)C3(C(=O)NO)CCN(C(=O)C(C)C)CC3)CC2)cc1 [Example 273]
13 |  |  | < 5.00 | 9.32 | CCCCOc1ccc(N2CCN(S(=O)(=O)C3(C(=O)NO)CCN(C(=O)CC)CC3)CC2)cc1 [Example 274]
14 |  |  | < 5.00 | 9.67 | CCCCOc1ccc(N2CCN(S(=O)(=O)C3(C(=O)NO)CCN(c4ccc(C)nn4)CC3)CC2)cc1 [Example 275]
15 |  |  | < 5.00 | 8.60 | CCCCOc1ccc(N2CCN(S(=O)(=O)C3(C(=O)NO)CCNCC3)CC2)cc1 [Example 276]
16 |  |  | < 5.00 | 9.64 | CCCCOc1ccc(N2CCN(S(=O)(=O)C3(C(=O)NO)CCN(C(=O)c4ccccn4)CC3)CC2)cc1 [Example 277]
17 |  |  | < 5.00 | 9.31 | CCCCOc1ccc(N2CCN(S(=O)(=O)C3(C(=O)NO)CCN(C(=O)CCCC)CC3)CC2)cc1 [Example 278]
18 |  |  | < 5.00 | 9.49 | CC(C)CCOc1ccc(N2CCN(S(=O)(=O)C3(C(=O)NO)CCOCC3)CC2)cc1 [Example 279]
19 |  |  | < 5.00 | 8.99 | CCCCOc1ccc(N2CCN(S(=O)(=O)C3(C(=O)NO)CCN(C)CC3)CC2)cc1 [Example 280]
20 |  |  | < 5.00 | 9.35 | CCCCOc1ccc(N2CCN(S(=O)(=O)C3(C(=O)NO)CCN(c4ccc(Cl)nn4)CC3)CC2)cc1 [Example 281]
21 |  |  | < 5.00 | 9.57 | CCCCOc1ccc(N2CCN(S(=O)(=O)C3(C(=O)NO)CCN(C(C)=O)CC3)CC2)cc1 [Example 282]
22 |  |  | 5.01 | 9.72 | CCCCOc1ccc(N2CCN(S(=O)(=O)C3(C(=O)NO)CCN(c4ccc(O)nn4)CC3)CC2)cc1 [Example 283]

Continued, compound first:

Row | SMILES | pKi ([1]; value not in parenthesis) | pKi ([2]; value not in parenthesis) | pKi ([1]; value outside parentheses) | pKi ([2]; value outside parentheses)
23 | CCCCc1ccc(C2CCN(S(=O)(=O)C3(C(=O)NO)CCN(CCOC)CC3)CC2)s1 [Example 55] | < 5.00 | 8.40 |  | 
24 | O=C(NO)C1(S(=O)(=O)N2CCN(c3ccc(COCC(F)(F)C(F)F)cc3)CC2)CCOCC1 [Example 71] | < 5.00 | 9.10 |  | 
25 | O=C(NO)C1(S(=O)(=O)N2CCN(c3ccc(COCC(F)(F)F)cc3)CC2)CCOCC1 [Example 72] | < 5.00 | 9.07 |  | 
26 | O=C(NO)C1(S(=O)(=O)N2CCN(c3ccc(OC4CCC4)c(F)c3)CC2)CCOCC1 [Example 73] | < 5.00 | 8.01 |  | 
27 | O=C(NO)C1(S(=O)(=O)N2CCN(c3ccc(OCc4ccccc4)cn3)CC2)CCOCC1 [Example 74] | 5.49 | 10.22 |  | 
28 | O=C(NO)C1(S(=O)(=O)N2CCN(c3ccc(-c4ccccc4)cc3)CC2)CCOCC1 [Example 76] | 5.87 | 9.40 |  | 
29 | O=C(NO)C1(S(=O)(=O)N2CCN(c3ccc(CCC(F)(F)F)cc3)CC2)CCOCC1 [Example 77] | < 5.00 | 9.08 |  | 
30 | CCN1CCC(C(=O)NO)(S(=O)(=O)N2CCN(c3ccc(OCCCC(F)(F)F)cc3)CC2)CC1 [Example 78] | < 5.00 | 9.37 |  | 
31 | CC(C)COc1ccc(N2CCN(S(=O)(=O)C3(C(=O)NO)CCOCC3)CC2)cc1Cl [Example 79] | < 5.00 | 8.18 |  | 
32 | O=C(NO)C1(S(=O)(=O)N2CCN(c3ccc(OCCCC(F)(F)F)cc3F)CC2)CCOCC1 [Example 81] | < 5.00 | 9.58 |  | 
33 | O=C(NO)C1(S(=O)(=O)N2CCN(c3cccc(C(F)(F)F)c3)CC2)CCOCC1 [Example 82] | < 5.00 | 8.13 |  | 
34 | O=C(NO)C1(S(=O)(=O)N2CCN(c3ccc(OCCCC(F)(F)F)cn3)CC2)CCOCC1 [Example 83] | 5.55 | 10.32 |  | 
35 | CCCCOc1ccc(N2CCN(S(=O)(=O)C3(C(=O)NO)CCN(C(C)(C)C)CC3)CC2)c(F)c1 [Example 84] | < 5.00 | 8.72 |  | 
36 | CCCCOc1ccc(N2CCN(S(=O)(=O)C3(C(=O)NO)Cc4ccccc4C3)CC2)nc1 [Example 85] | 5.32 | 9.60 |  | 
37 | COCCN1CCC(C(=O)NO)(S(=O)(=O)N2CCN(c3ccc(OCCCCF)cc3)CC2)CC1 [Example 88] | < 5.00 | 9.74 |  | 
38 | O=C(NO)C1(S(=O)(=O)N2CCN(c3ccc(OCCCCF)cc3)CC2)CCOCC1 [Example 89] | < 5.00 | 9.77 |  | 
39 | CCCCOc1ccc(N2CCN(S(=O)(=O)C3(C(=O)NO)CCOCC3)CC2)c(F)c1 [Example 90] | < 5.00 | 9.41 |  | 
40 | CCCCc1ccc(N2CCN(S(=O)(=O)C3(C(=O)NO)CCOCC3)CC2)c(F)c1 [Example 91] | 5.29 | 8.79 |  | 

Row | SMILES | pKi ([1]; value not in parenthesis) | pKi ([2]; value not in parenthesis) | pKi ([1]; value outside parentheses) | pKi ([2]; value outside parentheses)
41 | CCCCOc1ccc(N2CCN(S(=O)(=O)C3(C(=O)NO)CCN(c4nc5ccccc5s4)CC3)CC2)cc1 [Example 93] | < 5.00 | 7.59 |  | 
42 | O=C(NO)C1(S(=O)(=O)N2CCN(c3ccc(C(F)(F)F)cn3)CC2)CCOCC1 [Example 94] | 6.12 | 9.09 |  | 
43 | CCCCCc1ccc(N2CCN(S(=O)(=O)C3(C(=O)NO)CCN(c4ncccn4)CC3)CC2)nc1 [Example 95] | < 5.00 | 9.17 |  | 
44 | CCCCc1ccc(N2CCN(S(=O)(=O)C3(C(=O)NO)CCN(c4cccnc4)CC3)CC2)nc1 [Example 96] | < 5.00 | 9.36 |  | 
45 | CCCCOc1ccc(N2CCN(S(=O)(=O)C3(C(=O)NO)CCN(C(=O)OCC(C)(C)C)CC3)CC2)cc1 [Example 97] | < 5.00 | 7.66 |  | 
46 | C#CCOC(=O)N1CCC(C(=O)NO)(S(=O)(=O)N2CCN(c3ccc(OCCCC)cc3)CC2)CC1 [Example 98] | < 5.00 | 9.42 |  | 
47 | CCCCc1ccc(N2CCN(S(=O)(=O)C3(C(=O)NO)CCN(c4ncccn4)CC3)CC2)nc1 [Example 99] | 5.08 | 9.52 |  | 
48 | CCCCOc1ccc(N2CCN(S(=O)(=O)C3(C(=O)NO)CCOCC3)CC2)nc1 [Example 100] | 5.80 | 10.22 |  | 
49 | CCCCOc1ccc(N2CCN(S(=O)(=O)C3(C(=O)NO)CCN(c4ccc(Cl)c(Cl)c4)CC3)CC2)cc1 [Example 250] | < 5.00 | 7.74 |  | 
50 | CCCCOc1ccc(N2CCN(S(=O)(=O)C3(C(=O)NO)CCN(c4ccc(Cl)cc4)CC3)CC2)cc1 [Example 251] |  |  | < 5.00 | 7.89
51 | CCCCOc1ccc(N2CCN(S(=O)(=O)C3(C(=O)NO)CCN(Cc4ccco4)CC3)CC2)cc1 [Example 252] |  |  | < 5.00 | 9.43
52 | CCCCOc1ccc(N2CCN(S(=O)(=O)C3(C(=O)NO)CCN(C(N)=O)CC3)CC2)cc1 [Example 253] |  |  | < 5.00 | 9.45
53 | CCCCOc1ccc(N2CCN(S(=O)(=O)C3(C(=O)NO)CCN(C(=O)N(C)C)CC3)CC2)cc1 [Example 254] |  |  | < 5.00 | 10.00
54 | CCCCOc1ccc(N2CCN(S(=O)(=O)C3(C(=O)NO)CCN(C(=O)c4ccccc4)CC3)CC2)cc1 [Example 255] |  |  | < 5.00 | 9.41
55 | CCCCOc1ccc(N2CCN(S(=O)(=O)C3(C(=O)NO)CCN(c4ccc(C(F)(F)F)cn4)CC3)CC2)cc1 [Example 257] |  |  | < 5.00 | 7.89
56 | O=C(NO)C1(S(=O)(=O)N2CCN(c3ccc(SC(F)(F)F)cc3)CC2)CCS(=O)(=O)CC1 [Example 258] |  |  | < 5.00 | 7.52
57 | CCCCOc1ccc(N2CCN(S(=O)(=O)C3(C(=O)NO)CCN(C(=O)c4ccncc4)CC3)CC2)cc1 [Example 259] |  |  | < 5.00 | 9.44
58 | CCCCOc1ccc(N2CCN(S(=O)(=O)C3(C(=O)NO)CCN(C(=O)C4CC4)CC3)CC2)cc1 [Example 260] |  |  | < 5.00 | 9.52

— patent US20050209278A1, “Piperidinyl- and piperazinyl-sulfonylmethyl hydroxamic acids and their use as protease inhibitors” (priority 2002, published 2005)
